From ChEMBL document CHEMBL1201862, “PubChem BioAssay data set” (2004)
The source made the active and inactive calls.

Experiments:
[1] = Trypanosoma cruzi growth suppression in host cells – NIH3T3 host cells, beta-gal luminescence, confirmation (AID 2044); assay type: functional, cell-based;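 also: intracellular parasites grown in NIH/3T3 mouse fibroblasts as host cells; luminescent beta-galactosidase reporter signal from transgenic T. cruzi replicating inside host cells; inhibitors lower the luminescence signal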
[2] = NIH3T3 cell viability loss – ATP luminescence, mouse fibroblasts, counter-screen, dose response (AID 2010); assay type: functional, cell-based;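 also: cells exposed to compound for about 90 hours before reading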
[3] = biological target: T1, Heat shock factor protein 1 (Mus musculus, UniProt P38532); assay: enhancement of HSF1-driven luciferase signal – cell-based, NIH3T3, luminescence, dose retest, confirmation (AID 435004); assay type: functional;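 also: stress induced by proteasome inhibitor MG132 added 30 min after compound; luciferase reporter driven by HSF1 response element in NIH3T3 cells; actives raise luminescence as potentiators of the MG132 stress response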
T1 sequence (P38532 whole entry): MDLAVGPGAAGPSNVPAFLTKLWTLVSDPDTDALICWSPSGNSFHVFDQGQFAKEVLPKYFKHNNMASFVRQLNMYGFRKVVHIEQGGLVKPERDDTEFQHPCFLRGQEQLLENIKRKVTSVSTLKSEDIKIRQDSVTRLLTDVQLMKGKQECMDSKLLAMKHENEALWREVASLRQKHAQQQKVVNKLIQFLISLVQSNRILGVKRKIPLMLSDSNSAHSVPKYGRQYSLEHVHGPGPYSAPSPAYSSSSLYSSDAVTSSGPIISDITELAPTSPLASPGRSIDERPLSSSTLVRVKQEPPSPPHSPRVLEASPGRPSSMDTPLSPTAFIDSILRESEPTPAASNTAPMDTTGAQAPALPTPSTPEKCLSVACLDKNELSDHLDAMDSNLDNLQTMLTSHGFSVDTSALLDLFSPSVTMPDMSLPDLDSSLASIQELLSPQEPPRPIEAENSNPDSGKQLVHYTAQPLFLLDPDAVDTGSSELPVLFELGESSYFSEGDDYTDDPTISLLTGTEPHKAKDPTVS

[4] = biological target: Cytochrome P450 3A4 (Homo sapiens, UniProt P08684); conditions: Potency;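 also: confirmatory qHTS run detecting inhibitors and substrates of CYP3A4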
Cytochrome P450 3A4, sequence (P08684 whole entry): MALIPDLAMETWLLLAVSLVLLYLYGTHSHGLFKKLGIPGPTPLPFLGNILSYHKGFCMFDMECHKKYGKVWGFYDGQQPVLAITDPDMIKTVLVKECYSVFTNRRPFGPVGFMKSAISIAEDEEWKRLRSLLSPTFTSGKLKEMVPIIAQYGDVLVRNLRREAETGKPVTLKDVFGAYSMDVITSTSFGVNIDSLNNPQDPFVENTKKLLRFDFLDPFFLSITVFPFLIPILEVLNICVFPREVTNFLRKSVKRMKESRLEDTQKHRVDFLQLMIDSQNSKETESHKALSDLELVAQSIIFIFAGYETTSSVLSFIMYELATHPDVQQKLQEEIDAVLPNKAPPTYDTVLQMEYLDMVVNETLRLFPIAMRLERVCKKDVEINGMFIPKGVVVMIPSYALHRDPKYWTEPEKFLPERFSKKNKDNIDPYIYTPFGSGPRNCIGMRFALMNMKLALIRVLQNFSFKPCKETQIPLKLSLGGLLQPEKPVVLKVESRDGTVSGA

[5] = biological target: Nonstructural protein 1 (Influenza A virus, UniProt Q194T2); assay type: functional, Influenza A virus (A/California/07/2009(H1N1))
Nonstructural protein 1, sequence (Q194T2 whole entry): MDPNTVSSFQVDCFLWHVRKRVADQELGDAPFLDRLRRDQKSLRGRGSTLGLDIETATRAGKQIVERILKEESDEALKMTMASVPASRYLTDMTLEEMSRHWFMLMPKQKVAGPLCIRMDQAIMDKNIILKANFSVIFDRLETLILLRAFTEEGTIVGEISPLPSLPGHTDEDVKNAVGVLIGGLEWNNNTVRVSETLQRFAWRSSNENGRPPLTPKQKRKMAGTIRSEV

[6] = biological target: T2, Microphthalmia-associated transcription factor (Homo sapiens, UniProt O75030); assay: reducers of TRPM1 reporter luminescence, concentration series – cell-based, SK-MEL-5, cherry-picked, set 3, MITF inhibitor project, dose response (AID 493073); assay type: functional;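 also: SK-MEL-5 melanoma cells with luciferase driven by the MITF target TRPM1 promoter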
T2 sequence (O75030 whole entry): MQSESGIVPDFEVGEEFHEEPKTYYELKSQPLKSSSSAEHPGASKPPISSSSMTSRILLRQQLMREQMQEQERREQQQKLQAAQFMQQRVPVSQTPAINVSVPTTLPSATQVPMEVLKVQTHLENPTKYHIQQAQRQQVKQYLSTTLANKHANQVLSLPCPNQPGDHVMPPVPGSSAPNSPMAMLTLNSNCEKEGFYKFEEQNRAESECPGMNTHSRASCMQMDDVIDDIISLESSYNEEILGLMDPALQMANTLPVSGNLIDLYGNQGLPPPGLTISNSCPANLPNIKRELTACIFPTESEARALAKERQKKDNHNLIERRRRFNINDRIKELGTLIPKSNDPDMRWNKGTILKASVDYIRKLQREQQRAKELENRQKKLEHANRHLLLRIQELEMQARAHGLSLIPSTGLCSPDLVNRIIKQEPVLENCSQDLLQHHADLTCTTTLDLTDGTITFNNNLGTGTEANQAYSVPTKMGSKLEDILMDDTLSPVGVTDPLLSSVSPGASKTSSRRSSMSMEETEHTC

[7] = biological target: T3, Protein skinhead-1 (Caenorhabditis elegans, UniProt P34707); assay type: functional
T3 sequence (P34707 whole entry): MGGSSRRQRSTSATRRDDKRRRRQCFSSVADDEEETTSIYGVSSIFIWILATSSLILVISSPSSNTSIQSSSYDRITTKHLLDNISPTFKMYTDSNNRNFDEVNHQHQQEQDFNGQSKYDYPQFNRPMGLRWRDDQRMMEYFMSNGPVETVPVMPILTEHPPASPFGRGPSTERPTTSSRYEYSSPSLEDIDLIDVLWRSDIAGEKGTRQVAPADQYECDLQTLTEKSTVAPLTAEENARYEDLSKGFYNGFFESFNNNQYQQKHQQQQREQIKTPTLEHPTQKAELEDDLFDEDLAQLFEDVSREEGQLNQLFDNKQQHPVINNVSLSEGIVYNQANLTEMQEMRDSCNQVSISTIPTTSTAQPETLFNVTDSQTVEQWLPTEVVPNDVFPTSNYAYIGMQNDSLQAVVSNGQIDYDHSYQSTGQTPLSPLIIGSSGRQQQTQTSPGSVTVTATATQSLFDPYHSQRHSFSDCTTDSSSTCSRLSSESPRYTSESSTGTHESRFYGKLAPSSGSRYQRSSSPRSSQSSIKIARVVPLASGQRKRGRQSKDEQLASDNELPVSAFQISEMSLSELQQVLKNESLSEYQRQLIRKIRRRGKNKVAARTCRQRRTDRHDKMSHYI

[8] = biological target: T4, Replicative DNA helicase DnaB (Mycobacterium tuberculosis, UniProt P9WMR3); assay: DnaB intein splicing inhibitors, dose response, biochemical, cell-free fluorescence (AID 449749); assay type: functional
T4 sequence (P9WMR3 whole entry): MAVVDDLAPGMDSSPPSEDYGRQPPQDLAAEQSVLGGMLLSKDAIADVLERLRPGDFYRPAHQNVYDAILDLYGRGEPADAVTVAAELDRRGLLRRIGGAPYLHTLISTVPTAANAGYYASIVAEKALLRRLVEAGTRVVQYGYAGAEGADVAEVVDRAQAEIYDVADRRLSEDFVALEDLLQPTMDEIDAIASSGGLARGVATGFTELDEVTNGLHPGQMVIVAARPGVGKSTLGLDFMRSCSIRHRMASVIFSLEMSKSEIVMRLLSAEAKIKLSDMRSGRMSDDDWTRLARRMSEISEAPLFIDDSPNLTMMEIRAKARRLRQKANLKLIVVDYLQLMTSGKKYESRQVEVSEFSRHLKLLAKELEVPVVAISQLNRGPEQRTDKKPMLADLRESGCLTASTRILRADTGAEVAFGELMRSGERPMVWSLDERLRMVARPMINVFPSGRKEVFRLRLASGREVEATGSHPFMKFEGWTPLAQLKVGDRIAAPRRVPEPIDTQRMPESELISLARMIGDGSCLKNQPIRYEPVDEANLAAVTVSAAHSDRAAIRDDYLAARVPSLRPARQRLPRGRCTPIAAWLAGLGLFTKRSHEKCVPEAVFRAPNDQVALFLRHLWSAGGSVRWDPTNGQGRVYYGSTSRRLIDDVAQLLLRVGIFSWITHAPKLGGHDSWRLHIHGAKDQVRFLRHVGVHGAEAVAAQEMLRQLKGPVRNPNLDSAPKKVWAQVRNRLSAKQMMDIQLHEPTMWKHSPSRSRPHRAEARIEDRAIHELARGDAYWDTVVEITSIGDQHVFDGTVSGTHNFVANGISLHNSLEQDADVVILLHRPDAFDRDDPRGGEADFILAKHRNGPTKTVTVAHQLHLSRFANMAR

[9] = biological target: T5, Protein RecA (Mycobacterium tuberculosis, UniProt P9WHJ3); assay: Fluorescence Cell-Free Homogeneous Dose Retest to Identify Inhibitors of RecA-Intein Splicing Activity. [Related pubchem assays (depositor defined):AID2097, AID2223, AID489010, AID492950]; assay type: functional
T5 sequence (P9WHJ3 whole entry): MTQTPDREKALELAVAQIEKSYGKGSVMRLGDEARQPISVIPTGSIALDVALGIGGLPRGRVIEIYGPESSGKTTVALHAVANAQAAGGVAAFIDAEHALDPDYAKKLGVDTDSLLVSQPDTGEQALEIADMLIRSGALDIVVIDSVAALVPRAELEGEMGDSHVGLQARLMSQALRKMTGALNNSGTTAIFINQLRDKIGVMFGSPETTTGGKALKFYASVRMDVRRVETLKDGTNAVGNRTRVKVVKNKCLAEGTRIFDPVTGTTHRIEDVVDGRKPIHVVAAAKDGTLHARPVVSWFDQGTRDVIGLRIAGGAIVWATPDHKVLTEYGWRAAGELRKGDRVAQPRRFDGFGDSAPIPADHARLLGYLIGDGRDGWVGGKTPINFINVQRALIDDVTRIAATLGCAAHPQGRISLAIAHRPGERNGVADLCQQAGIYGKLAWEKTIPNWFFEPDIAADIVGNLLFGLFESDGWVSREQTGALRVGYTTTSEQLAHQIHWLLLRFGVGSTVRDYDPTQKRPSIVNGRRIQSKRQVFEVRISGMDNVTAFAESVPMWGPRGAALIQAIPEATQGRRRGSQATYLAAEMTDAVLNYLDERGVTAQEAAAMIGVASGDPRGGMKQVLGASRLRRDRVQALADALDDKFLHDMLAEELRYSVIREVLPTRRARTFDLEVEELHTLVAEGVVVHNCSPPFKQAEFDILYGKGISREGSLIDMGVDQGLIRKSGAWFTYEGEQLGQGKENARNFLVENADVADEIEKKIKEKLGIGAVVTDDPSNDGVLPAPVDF

[10] = biological target: T6, Rac GTPase-activating protein 1 (Homo sapiens, UniProt Q9H0H5); assay: blockers of MgcRacGAP-driven Rac1 GTP hydrolysis – biochemical, ADP Hunter fluorescence, primary and confirmatory, confirmation (AID 624330); assay type: functional
T6 sequence (Q9H0H5 whole entry): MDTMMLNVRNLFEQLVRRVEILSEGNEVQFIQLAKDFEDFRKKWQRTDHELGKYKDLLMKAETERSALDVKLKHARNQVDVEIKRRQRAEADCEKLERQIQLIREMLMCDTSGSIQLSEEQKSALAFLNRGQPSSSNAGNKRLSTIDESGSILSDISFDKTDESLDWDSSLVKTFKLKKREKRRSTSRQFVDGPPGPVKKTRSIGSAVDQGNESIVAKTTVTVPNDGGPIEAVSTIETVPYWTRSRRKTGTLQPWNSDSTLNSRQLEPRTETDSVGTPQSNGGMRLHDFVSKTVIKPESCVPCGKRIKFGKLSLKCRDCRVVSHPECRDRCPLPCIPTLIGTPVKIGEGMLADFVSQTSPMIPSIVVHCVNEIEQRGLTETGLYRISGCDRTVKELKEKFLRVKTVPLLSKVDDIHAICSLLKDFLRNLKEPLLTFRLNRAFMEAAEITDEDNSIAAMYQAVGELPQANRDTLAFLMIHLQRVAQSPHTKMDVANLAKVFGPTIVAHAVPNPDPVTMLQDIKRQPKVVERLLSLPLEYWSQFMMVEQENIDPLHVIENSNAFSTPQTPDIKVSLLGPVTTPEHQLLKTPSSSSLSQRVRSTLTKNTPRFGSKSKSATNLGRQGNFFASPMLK

Row | SMILES | EC50 [3] | AC50 [4] | further results
1 | Fc1ccc(Sc2ccccc2CNC2=NCCN2)cc1 | > 260 µM (inactive) | – | EC50 [1]: 1.49 µM (active); EC50 [2]: > 60 µM (not active)
2 | COCCNC(=O)[C@@]1(Cc2ccccc2)C=C[C@@H](C)N1C(C)=O | – | 20 µM (inconclusive) | –
3 | Cc1ccc(N)cc1[N+](=O)[O-] | – | 31.6 µM (inconclusive) | –
4 | COc1ccc(C(CCNCc2ccc(N(C)C)cc2)C(C)C)cc1 (stereo not drawn) | – | – | IC50 [5]: 39.1 µM (active)
5 | O=C(COC(=O)c1ccc(S(=O)(=O)NCc2ccco2)cc1)Nc1ccccc1OC(F)F | > 260 µM (inactive) | – | –
6 | COc1cc(OC)c2c(c1C(CCN1CCOCC1)c1ccc(N(C)C)cc1)OC(=O)CC2c1ccc(N(C)C)cc1 (stereo not drawn) | – | – | IC50 [5]: 14.5 µM (active)
7 | Nc1cc(Cl)cc(Cl)c1 | – | 31.6 µM (inconclusive) | –
8 | CC1Cc2c(COc3ccccc3)nc3c(c2CO1)CN(CCOc1ccccc1)CC3 (stereo not drawn) | – | 3.98 µM (inconclusive) | –
9 | Cc1ccc(C)c(S(=O)(=O)N2CCCCC2CCNC(=O)C(=O)NCCc2ccco2)c1 (stereo not drawn) | > 260 µM (inactive) | – | –
10 | CN(Cc1cccc2cnccc12)C(=O)c1cc(COc2ccc(F)cc2F)on1 | > 260 µM (inactive) | – | –
11 | O=C(COC(=O)/C=C/c1cccc([N+](=O)[O-])c1)NCc1ccco1 | > 260 µM (inactive) | – | –
12 | COCCn1c(C)cc(C(=O)COC(=O)c2ccc(-n3nc(C)cc3C)cc2)c1C | > 260 µM (inactive) | – | –
13 | CC(C)(C)C(=O)Cn1ncc(Cl)c(Cl)c1=O | – | – | AC50 [6]: 10.4 µM (active)
14 | c1ccc(-c2ccc(SCc3cccnc3)nn2)nc1 | – | – | IC50 [5]: 5.07 µM (active)
15 | Nc1cc([N+](=O)[O-])ccc1C(=O)O | – | 10 µM (inconclusive) | –
16 | Cc1cc(OCC(=O)N(Cc2ccco2)C2CCS(=O)(=O)C2)cc(C)c1Cl (stereo not drawn) | > 260 µM (inactive) | – | –
17 | Nc1cccc2c1C(=O)c1ccc(Cl)cc1C2=O | – | – | IC50 [5]: 24.6 µM (active); IC50 [7]: > 100 µM (inactive)
18 | CC1(C)CC(CCN)(Cc2ccccc2Cl)CCO1 (stereo not drawn) | > 260 µM (inactive) | – | –
19 | COc1cc(/C=N/Nc2snc(SC)c2C#N)ccc1O | > 260 µM (inactive) | – | –
20 | CCOc1cccc(/C=N/NC(=S)NCCN2CCOCC2)c1O | – | – | IC50 [5]: 16.5 µM (active)
21 | Nc1nnnn1CC(=O)N/N=C/c1ccccn1 | > 260 µM (inactive) | – | –
22 | CCc1nnc(N/N=C/c2cc(Br)c(O)cc2O)n1N | – | – | IC50 [5]: 6.41 µM (active); AC50 [8]: > 380 µM (inactive); EC50 [9]: 9.31 µM (active); IC50 [10]: 66.2 µM (active)
23 | O=[N+]([O-])c1ccc2cn[nH]c2c1 | – | 12.6 µM (inconclusive) | –
24 | Cc1ccc(Cl)cc1N | – | 31.6 µM (inconclusive) | –
25 | Cc1cc(=O)oc2cc(O)c(O)cc12 [4-METHYLESCULETIN] | – | 15.8 µM (inconclusive) | –
26 | CC1=C(/C=C/C(C)=C/C=C/C(C)=C/CO)C(C)(C)CCC1 [RETINOL] | – | 15.8 µM (inconclusive) | –
27 | C[C@]12CCC(=O)C[C@@H]1CC[C@@H]1[C@@H]2CC[C@]2(C)[C@@H](O)CC[C@@H]12 [STANOLONE] | – | 15.8 µM (inconclusive) | –
